Legend:
Test in all cases: relative viability (nuclei count vs DMSO), 5 days (fraction); higher = more cells survive
H3255 = tested on: H3255
How it was run: (§1)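 Lung cancer cell lines in 1536-well plates were dosed by pin tool the day after seeding, either with one drug alone or with a fixed anchor-drug dose plus five library-drug doses (not always all listed) in √10 steps. After 5 days, cells were fixed and their nuclei stained in one step (final 0.05% Triton X-100, 1% formaldehyde, 1 ug/ml Hoechst), then counted on 4× images. Relative viability is the nuclei count in treated wells divided by that in vehicle wells. Values are medians of duplicate plates.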

NCI-H2087 = tested on: NCI-H2087
How it was run: as §1

ChaGo-K-1 = tested on: ChaGo-K-1
How it was run: as §1

NCI-H650 = tested on: NCI-H650
How it was run: as §1

LCLC-97TM1 = tested on: LCLC-97TM1
How it was run: as §1

LCLC-103H = tested on: LCLC-103H
How it was run: as §1

EPLC-272H = tested on: EPLC-272H
How it was run: as §1

NCI-H520 = tested on: NCI-H520
How it was run: as §1

NCI-H2085 = tested on: NCI-H2085
How it was run: as §1

UMC-11 = tested on: UMC-11
How it was run: as §1

HCC-44 = tested on: HCC-44
How it was run: as §1

NCI-H1395 = tested on: NCI-H1395
How it was run: as §1

NCI-H1944 = tested on: NCI-H1944
How it was run: as §1

NCI-H2405 = tested on: NCI-H2405
How it was run: as §1

NCI-H1651 = tested on: NCI-H1651
How it was run: as §1

EMC-BAC-2 = tested on: EMC-BAC-2
How it was run: as §1

NCI-H1793 = tested on: NCI-H1793
How it was run: as §1

NCI-H1355 = tested on: NCI-H1355
How it was run: as §1

NCI-H322M = tested on: NCI-H322M
How it was run: as §1

SK-MES-1 = tested on: SK-MES-1
How it was run: as §1

HCC-827 = tested on: HCC-827
How it was run: as §1

NCI-H1993 = tested on: NCI-H1993
How it was run: as §1

NCI-H23 = tested on: NCI-H23
How it was run: as §1

## C[C@@H]1CN(CC(=O)Nc2ccc3c(c2)Cc2cccc(-c4cc(=O)cc(N5CCOCC5)o4)c2S3)C[C@H](C)O1 + O=C(CCCCCCC(=O)Nc1ccccc1)NO [Vorinostat] (partner 1 µM)
H3255; first compound 0.04 µM
  relative viability: 0.634
H3255; first compound 0.1265 µM
  relative viability: 0.757
H3255; first compound 0.4 µM
  relative viability: 0.985
H3255; first compound 4 µM
  relative viability: 0.67
NCI-H2087; first compound 0.04 µM
  relative viability: 0.85
NCI-H2087; first compound 0.1265 µM
  relative viability: 0.587
NCI-H2087; first compound 0.4 µM
  relative viability: 0.663
NCI-H2087; first compound 4 µM
  relative viability: 0.62
ChaGo-K-1; first compound 0.04 µM
  relative viability: 0.496
ChaGo-K-1; first compound 0.1265 µM
  relative viability: 0.778
ChaGo-K-1; first compound 0.4 µM
  relative viability: 0.803
ChaGo-K-1; first compound 4 µM
  relative viability: 0.72
NCI-H650; first compound 0.04 µM
  relative viability: 0.364
NCI-H650; first compound 0.1265 µM
  relative viability: 0.386
NCI-H650; first compound 0.4 µM
  relative viability: 0.39
NCI-H650; first compound 4 µM
  relative viability: 0.414
LCLC-97TM1; first compound 0.1265 µM
  relative viability: 0.547
LCLC-97TM1; first compound 0.4 µM
  relative viability: 0.685
LCLC-97TM1; first compound 4 µM
  relative viability: 0.552
LCLC-103H; first compound 0.04 µM
  relative viability: 0.743
LCLC-103H; first compound 0.1265 µM
  relative viability: 0.674
LCLC-103H; first compound 0.4 µM
  relative viability: 0.804
LCLC-103H; first compound 4 µM
  relative viability: 0.706
EPLC-272H; first compound 0.04 µM
  relative viability: 0.457
EPLC-272H; first compound 0.1265 µM
  relative viability: 0.414
EPLC-272H; first compound 0.4 µM
  relative viability: 0.407
EPLC-272H; first compound 4 µM
  relative viability: 0.307
NCI-H520; first compound 0.04 µM
  relative viability: 0.776
NCI-H520; first compound 0.1265 µM
  relative viability: 0.677
NCI-H520; first compound 0.4 µM
  relative viability: 0.656
NCI-H520; first compound 4 µM
  relative viability: 0.562
NCI-H2085; first compound 0.04 µM
  relative viability: 0.814
NCI-H2085; first compound 0.1265 µM
  relative viability: 0.782
NCI-H2085; first compound 0.4 µM
  relative viability: 0.69
NCI-H2085; first compound 4 µM
  relative viability: 0.667
UMC-11; first compound 0.04 µM
  relative viability: 0.378
UMC-11; first compound 0.1265 µM
  relative viability: 0.433
UMC-11; first compound 0.4 µM
  relative viability: 0.441
UMC-11; first compound 4 µM
  relative viability: 0.366
HCC-44; first compound 0.04 µM
  relative viability: 1.12
HCC-44; first compound 0.1265 µM
  relative viability: 1.01
HCC-44; first compound 0.4 µM
  relative viability: 1.08
HCC-44; first compound 4 µM
  relative viability: 0.966
NCI-H1395; first compound 0.1265 µM
  relative viability: 0.631
NCI-H1395; first compound 0.4 µM
  relative viability: 0.597
NCI-H1395; first compound 4 µM
  relative viability: 0.812
NCI-H1944; first compound 0.1265 µM
  relative viability: 0.716
NCI-H1944; first compound 0.4 µM
  relative viability: 0.594
NCI-H1944; first compound 4 µM
  relative viability: 0.637
NCI-H2405; first compound 0.04 µM
  relative viability: 1.06
NCI-H2405; first compound 0.1265 µM
  relative viability: 1.12
NCI-H2405; first compound 0.4 µM
  relative viability: 0.94
NCI-H2405; first compound 4 µM
  relative viability: 1.01
NCI-H1651; first compound 0.04 µM
  relative viability: 0.541
NCI-H1651; first compound 0.1265 µM
  relative viability: 0.535
NCI-H1651; first compound 0.4 µM
  relative viability: 0.538
NCI-H1651; first compound 4 µM
  relative viability: 0.559
EMC-BAC-2; first compound 0.04 µM
  relative viability: 0.397
EMC-BAC-2; first compound 0.1265 µM
  relative viability: 0.468
EMC-BAC-2; first compound 0.4 µM
  relative viability: 0.469
EMC-BAC-2; first compound 4 µM
  relative viability: 0.54
NCI-H1793; first compound 0.04 µM
  relative viability: 0.847
NCI-H1793; first compound 0.1265 µM
  relative viability: 0.745
NCI-H1793; first compound 0.4 µM
  relative viability: 0.762
NCI-H1793; first compound 4 µM
  relative viability: 0.574
NCI-H1355; first compound 0.04 µM
  relative viability: 0.552
NCI-H1355; first compound 0.1265 µM
  relative viability: 0.713
NCI-H1355; first compound 0.4 µM
  relative viability: 0.566
NCI-H1355; first compound 4 µM
  relative viability: 0.621
NCI-H322M; first compound 0.04 µM
  relative viability: 0.883
NCI-H322M; first compound 0.1265 µM
  relative viability: 0.847
NCI-H322M; first compound 0.4 µM
  relative viability: 0.902
NCI-H322M; first compound 4 µM
  relative viability: 0.776
SK-MES-1; first compound 0.04 µM
  relative viability: 1.19
SK-MES-1; first compound 0.1265 µM
  relative viability: 1.07
SK-MES-1; first compound 0.4 µM
  relative viability: 1.01
SK-MES-1; first compound 4 µM
  relative viability: 0.855
HCC-827; first compound 0.04 µM
  relative viability: 0.801
HCC-827; first compound 0.1265 µM
  relative viability: 0.862
HCC-827; first compound 0.4 µM
  relative viability: 0.727
HCC-827; first compound 4 µM
  relative viability: 0.757
NCI-H1993; first compound 0.04 µM
  relative viability: 0.911
NCI-H1993; first compound 0.1265 µM
  relative viability: 0.78
NCI-H1993; first compound 0.4 µM
  relative viability: 0.626
NCI-H1993; first compound 4 µM
  relative viability: 0.735
NCI-H23; first compound 0.04 µM
  relative viability: 0.634
NCI-H23; first compound 0.1265 µM
  relative viability: 0.508
NCI-H23; first compound 0.4 µM
  relative viability: 0.537
NCI-H23; first compound 4 µM
  relative viability: 0.589

Source: the supplement of paper PMC10307832
